# In US20120252721A1 (priority 2011, published 2012):
# Experiments:
# [1] = system: HCV Con1 subgenomic replicon (GS4.1 cells); assay: HCV replicon assay (NS5A ELISA, 72 hrs); format: cell-based; details: Hepatitis C virus
# Procedure: Huh-7 cells containing HCV Con1 subgenomic replicon (GS4.1 cells) were grown in Dulbecco's Modified Eagle Medium (DMEM) supplemented with 10% fetal bovine serum (FBS), 2 mM L-glutamine, 110 mg/L sodium pyruvate, 1× non-essential amino acids, 100 U/mL penicillin-streptomycin, and 0.5 mg/mL G418 (Invitrogen). For dose-response testing, the cells were seeded in 96-well plates at 7.5×10^3 cells/well in a volume of 50 μL, and incubated at 37° C./5% CO2. Three hours after plating, 50 μL often 2-fold serial dilutions of compounds (highest concentration, 75 μM) were added, and cell cultures were incubated at 37° C./5% CO2 in the presence of 0.5% DMSO. Alternatively, compounds were tested at a single concentration of 15 μM. In all cases, Huh-7 cells lacking the HCV replicon served as negative control. The cells were incubated in the presence of compounds for 72 hrs after which they were monitored for expression of the NS5A protein by enzyme-linked immunosorbent assay (ELISA). For this, the plates were then fixed for 1 min with acetone/methanol (1:1, v/v), washed twice with phosphate-buffered saline (PBS), 0.1% Tween 20, blocked for 1 hr at room temperature with TNE buffer containing 10% FBS and then incubated for 2 hr at 37° C. with the anti-NS5A mouse monoclonal antibody A-236 (ViroGen) diluted in the same buffer. After washing three times with PBS, 0.1% Tween 20, the cells were incubated 1 hr at 37° C. with anti-mouse immunoglobulin G-peroxidase conjugate in TNE, 10% FBS. After washing as described above, the reaction was developed with O-phenylenediamine (Zymed). The reaction was stopped after 30 min with 2 NH2SO4, and absorbance was read at 492 nm using Sunrise Tecan spectrophotometer. EC50 values were determined from the % inhibition versus concentration data using a sigmoidal non-linear regression analysis based on four parameters with Tecan Magellan software.
# in vitro = format: cell-based; details: human; GS4.1 cells, cellular viability
# Procedure: For cytotoxicity evaluation, GS4.1 cells were treated with compounds as described above and cellular viability was monitored using the Cell Titer 96 AQeous One Solution Cell Proliferation Assay (Promega). CC50 values were determined from the % cytotoxicity versus concentration data with Tecan Magellan software as described above.
Compound,EC50 [1],CC50 (in vitro)
COC(=O)N[C@H](C(=O)N1CCCC1c1ncc(-c2ccc(-c3csc4c(-c5cnc(C6CCCN6C(=O)[C@H](NC(=O)OC)C(C)C)[nH]5)csc34)cc2)[nH]1)C(C)C (stereo partly shown) [Compound A77],< 0.001 µM,> 75 µM
COC(=O)N[C@H](C(=O)N1CCCC1c1nc(-c2ccc(-c3cn4cc(-c5ccc(-c6cnc([C@@H]7CCCN7C(=O)[C@@H](NC(=O)OC)C(C)C)[nH]6)cc5)sc4n3)cc2)c[nH]1)C(C)C (stereo partly shown) [Compound A93],< 0.001 µM,> 75 µM
COC(=O)N[C@H](C(=O)N1CCCC1c1ncc(-c2ccc(-c3csc4c(-c5cnc(C6CCCN6C(=O)[C@@H](NC(=O)OC(C)(C)C)C(C)C)[nH]5)csc34)cc2)[nH]1)C(C)C (stereo partly shown) [Compound A76],< 0.001 µM,> 75 µM
COC(=O)N[C@H](C(=O)N1CCCC1c1ncc(-c2csc3c(-c4ccc(-c5cnc(C6CCCN6C(=O)[C@@H](NC(=O)OC)C(C)C)[nH]5)cc4)csc23)[nH]1)c1ccccc1 (stereo partly shown) [Compound A78],< 0.001 µM,> 75 µM
CC(C)(C)OC(=O)N[C@@H](C(=O)N1CCC[C@H]1C(=O)Nc1cn2cc(C#Cc3ccccc3)sc2n1)c1ccccc1 [Compound A23],> 0.1 µM,10 to 75 µM
COC(=O)N[C@H](C(=O)N1CCC[C@H]1c1cc(-c2ccc(-c3cn4cc(NC(=O)[C@@H]5CCCN5C(=O)[C@H](NC(=O)OC(C)C)c5ccccc5)nc4s3)cc2)[nH]n1)C(C)C [Compound A156],< 0.001 µM,> 75 µM
"CCOC(=O)N[C@@H](C(=O)N1CCC[C@H]1C(=O)Nc1cn2cc(-c3ccc(-c4cnc([C@@H]5CCCN5C(=O)[C@@H](NC(=O)OC)C(C)C)[nH]4)cc3)sc2n1)c1ccccc1 [Compound A55, (S,S,S,R)-[1-(2-{5-[4-(6-{[1-(2-ethoxycarbonylamino-2-phenylacetyl)-pyrrolidine-2-carbonyl]-amino}imidazo[2,1-b]thiazol-2-yl)-phenyl]-1H-imidazol-2-yl}pyrrolidine-1-carbonyl)-2-methyl-propyl]-carbamic acid methyl ester]",< 0.001 µM,10 to 75 µM
COC(=O)N[C@H](C(=O)N1CCCC1c1ncc(-c2ccc(-c3csc4c(-c5cnc(C6CCCN6C(=O)OC(C)(C)C)[nH]5)csc34)cc2)[nH]1)C(C)C (stereo partly shown) [Compound A151],< 0.001 µM,10 to 75 µM
CC(C)(C)OC(=O)N[C@@H](C(=O)N1CCOC[C@H]1C(=O)Nc1cn2cc(-c3ccccc3)sc2n1)c1ccccc1 [Compound A22],> 0.1 µM,> 75 µM
CC(C)(C)OC(=O)N1CCCC1c1ncc(-c2ccc(-c3nc4sccn4c3Cl)cc2)[nH]1 (stereo not shown) [Compound A161],> 0.1 µM,> 75 µM
COC(=O)N[C@H](C(=O)N1CCCC1c1nc(-c2ccc(-c3sc4cc(-c5ccc(-c6cnc([C@@H]7CCCN7C(=O)[C@@H](NC(=O)OC)C(C)C)[nH]6)cc5)sc4c3-c3ccc(-c4cnc(C5CCCN5C(=O)[C@@H](NC(=O)OC)C(C)C)[nH]4)cc3)cc2)c[nH]1)C(C)C (stereo partly shown) [Compound A105],0.01 to 0.1 µM,10 to 75 µM
COC(=O)N[C@H](C(=O)N1CCC[C@H]1C(=O)Nc1ccc(-c2cn3cc(NC(=O)OC(C)(C)C)nc3s2)cc1)C(C)C [Compound A34],0.001 to 0.01 µM,10 to 75 µM
COC(=O)N[C@H](C(=O)N1CCC[C@H]1c1ncc(-c2ccc(-c3cn4cc(-c5cnc(C6CCCN6C(=O)[C@@H](NC(=O)OC(C)(C)C)c6ccccc6)[nH]5)nc4s3)cc2)[nH]1)C(C)C (stereo partly shown) [Compound A33],< 0.001 µM,> 75 µM
COC(=O)N[C@H](C(=O)N1CCC[C@H]1c1ncc(-c2ccc(-c3cn4cc(NC(=O)[C@@H]5CCCN5C(=O)[C@H](NC(=O)OC(C)C)c5ccccc5)nc4s3)cc2)[nH]1)C(C)C [Compound A56],< 0.001 µM,> 75 µM
"COC(=O)N[C@H](C(=O)N1CCC[C@H]1C(=O)Nc1cn2cc(-c3ccc(-c4cnc([C@@H]5CCCN5C(=O)[C@@H](NC(=O)OC)C(C)C)[nH]4)cc3)sc2n1)C(C)C [Compound A2, (S,S,S,S)-(1-{2-[2-(4-{2-[1-(2-methoxycarbonylamino-3-methyl-butyryl)-pyrrolidin-2-yl]-3H-imidazol-4-yl}-phenyl)-imidazo[2,1-b]thiazol-6-ylcarbamoyl]-pyrrolidine-1-carbonyl}-2-methyl-propyl)-carbamic acid methyl ester]",0.001 to 0.01 µM,10 to 75 µM
COC(=O)N[C@H](C(=O)N1CCCC1c1cc(-c2ccc(-c3csc4c(-c5ccc(-c6cnc(C7CCCN7C(=O)[C@@H](NC(=O)OC)C(C)C)[nH]6)cc5)csc34)cc2)[nH]n1)C(C)C (stereo partly shown) [Compound A87],< 0.001 µM,> 75 µM
"COC(=O)N[C@H](C(=O)N1CCC[C@H]1c1ncc(C#Cc2csc3c(-c4ccc(-c5cnc([C@@H]6CCCN6C(=O)[C@@H](NC(=O)OC)C(C)C)[nH]5)cc4)csc23)[nH]1)C(C)C [Compound A84, [(S)-1-((S)-2-{4-[4-(6-{2-[(S)-1-((S)-2-methoxycarbonylamino-3-methyl-butyryl)-pyrrolidin-2-yl]-3H-imidazol-4-ylethynyl}-thieno[3,2-b]thiophen-3-yl)-phenyl]-1H-imidazol-2-yl}-pyrrolidine-1-carbonyl)-2-methyl-propyl]-carbamic acid methyl ester]",< 0.001 µM,> 75 µM
CC(C)(C)OC(=O)Nc1ccc(-c2cn3cc(NC(=O)[C@@H]4CCCN4C(=O)[C@H](NC(=O)OC(C)(C)C)c4ccccc4)nc3s2)cc1 [Compound A29],> 0.1 µM,10 to 75 µM
COC(=O)N[C@H](C(=O)N1CCC[C@H]1C(=O)Nc1ccc(-c2cn3cc(NC(=O)C4CCCN4C(=O)[C@@H](NC(=O)OC)C(C)C)nc3s2)cc1)c1ccccc1 (stereo partly shown) [Compound A32],< 0.001 µM,> 75 µM
COC(=O)N[C@H](C(=O)N1CCCC1c1ncc(-c2cn3cc(-c4ccc(-c5cnc([C@@H]6CCCN6C(=O)[C@@H](NC(=O)OC)C(C)C)[nH]5)cc4)nc3s2)[nH]1)C(C)C (stereo partly shown) [Compound A7],< 0.001 µM,> 75 µM
COC(=O)N[C@H](C(=O)N1CCCC1c1ncc(-c2ccc(-c3csc4cc(C(=O)OC)[nH]c34)cc2)[nH]1)C(C)C (stereo partly shown) [Compound A164],0.01 to 0.1 µM,10 to 75 µM
COC(=O)N[C@H](C(=O)N1CCC[C@H]1c1ncc(-c2ccc(-c3cn4cc(NC(=O)CNC(=O)[C@H](NC(=O)OC(C)(C)C)c5ccccc5)nc4s3)cc2)[nH]1)C(C)C [Compound A148],0.001 to 0.01 µM,> 75 µM
COC(=O)N[C@H](C(=O)N1CCCC1c1nc(-c2ccc(-c3cc4sc(-c5ccc(-c6cnc([C@@H]7CCCN7C(=O)[C@@H](NC(=O)OC)C(C)C)[nH]6)cc5)cc4s3)cc2)c[nH]1)C(C)C (stereo partly shown) [Compound A159],< 0.001 µM,> 75 µM
COC(=O)N[C@H](C(=O)N1CCCC1c1ncc(-c2ccc(-c3cn4ccsc4n3)cc2)[nH]1)C(C)C (stereo partly shown) [Compound A160],0.01 to 0.1 µM,> 75 µM
CC(C)(C)OC(=O)N1CCCC1c1ncc(-c2ccc(-c3cn4ccsc4n3)cc2)[nH]1 (stereo not shown) [Compound A167],> 0.1 µM,
